Data taken from PubChem BioAssay (NCI).
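Five compound concentrations were applied to cells in 96-well plates for 48 hours; endpoints were derived by simple linear interpolation of the resulting dose-response curve. GI50 marks 50% less growth. TGI is the concentration that stops growth completely.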

Experiments:
Assay in all cases: NCI tumour cell line growth inhibition, 48 h
786-0 renal = system: 786-0 renal
A498 renal = system: A498 renal
A549 NSCLC = system: A549 NSCLC
ACHN renal = system: ACHN renal
BT-549 breast = system: BT-549 breast
CAKI-1 renal = system: CAKI-1 renal
CCRF-CEM leukemia = system: CCRF-CEM leukemia
COLO 205 colon = system: COLO 205 colon
DU-145 prostate = system: DU-145 prostate
EKVX NSCLC = system: EKVX NSCLC
HCC-2998 colon = system: HCC-2998 colon
HCT-116 colon = system: HCT-116 colon
HCT-15 colon = system: HCT-15 colon
HL-60(TB) leukemia = system: HL-60(TB) leukemia
HOP-62 NSCLC = system: HOP-62 NSCLC
HOP-92 NSCLC = system: HOP-92 NSCLC
HS 578T breast = system: HS 578T breast
HT29 colon = system: HT29 colon
IGROV1 ovarian = system: IGROV1 ovarian
K-562 leukemia = system: K-562 leukemia
KM12 colon = system: KM12 colon
LOX IMVI melanoma = system: LOX IMVI melanoma
M14 melanoma = system: M14 melanoma
MALME-3M melanoma = system: MALME-3M melanoma
MCF7 breast = system: MCF7 breast
MDA-MB-231 breast = system: MDA-MB-231 breast
MDA-MB-435 = system: MDA-MB-435
MDA-MB-468 breast = system: MDA-MB-468 breast
MOLT-4 leukemia = system: MOLT-4 leukemia
NCI-H226 lung = system: NCI-H226 lung
NCI-H23 lung = system: NCI-H23 lung
NCI-H460 lung = system: NCI-H460 lung
NCI-H522 lung = system: NCI-H522 lung
NCI/ADR-RES ovarian = system: NCI/ADR-RES ovarian
OVCAR-3 ovarian = system: OVCAR-3 ovarian
OVCAR-4 ovarian = system: OVCAR-4 ovarian
OVCAR-5 ovarian = system: OVCAR-5 ovarian
OVCAR-8 ovarian = system: OVCAR-8 ovarian
PC-3 prostate = system: PC-3 prostate
RPMI-8226 leukemia = system: RPMI-8226 leukemia
RXF 393 renal = system: RXF 393 renal
SF-268 CNS = system: SF-268 CNS
SF-295 CNS = system: SF-295 CNS
SF-539 CNS = system: SF-539 CNS
SK-MEL-2 melanoma = system: SK-MEL-2 melanoma
SK-MEL-28 melanoma = system: SK-MEL-28 melanoma
SK-MEL-5 melanoma = system: SK-MEL-5 melanoma
SK-OV-3 ovarian = system: SK-OV-3 ovarian
SN12C renal = system: SN12C renal
SNB-19 CNS = system: SNB-19 CNS
SNB-75 CNS = system: SNB-75 CNS
SR leukemia = system: SR leukemia
SW-620 colon = system: SW-620 colon
T-47D breast = system: T-47D breast
TK-10 renal = system: TK-10 renal
U251 CNS = system: U251 CNS
UACC-257 melanoma = system: UACC-257 melanoma
UACC-62 melanoma = system: UACC-62 melanoma
UO-31 renal = system: UO-31 renal

CS(=O)(=O)Nc1cc(-c2ccc3ncnc(Nc4ccc(OCc5cccnc5)c(Cl)c4)c3c2)cnc1Cl
GI50 (786-0 renal): 1810 nM
TGI (786-0 renal): 11100 nM
GI50 (A498 renal): 1840 nM
TGI (A498 renal): 6490 nM
GI50 (A549 NSCLC): 7760 nM
TGI (A549 NSCLC): 25100 nM
GI50 (ACHN renal): 4450 nM
TGI (ACHN renal): > 48800 nM
GI50 (BT-549 breast): 379 nM
TGI (BT-549 breast): 2220 nM
GI50 (CAKI-1 renal): 935 nM
TGI (CAKI-1 renal): 6450 nM
GI50 (CCRF-CEM leukemia): 801 nM
TGI (CCRF-CEM leukemia): > 37900 nM
GI50 (COLO 205 colon): 1410 nM
TGI (COLO 205 colon): 3590 nM
GI50 (DU-145 prostate): 2740 nM
TGI (DU-145 prostate): 21500 nM
GI50 (EKVX NSCLC): 970 nM
TGI (EKVX NSCLC): 6250 nM
GI50 (HCC-2998 colon): 1590 nM
TGI (HCC-2998 colon): 5220 nM
GI50 (HCT-116 colon): 1690 nM
TGI (HCT-116 colon): 4550 nM
GI50 (HCT-15 colon): 2840 nM
TGI (HCT-15 colon): 17000 nM
GI50 (HL-60(TB) leukemia): 335 nM
TGI (HL-60(TB) leukemia): 10300 nM
GI50 (HOP-62 NSCLC): 1560 nM
TGI (HOP-62 NSCLC): 40900 nM
GI50 (HOP-92 NSCLC): 183 nM
TGI (HOP-92 NSCLC): 1970 nM
GI50 (HS 578T breast): 196 nM
TGI (HS 578T breast): 1700 nM
GI50 (HT29 colon): 1950 nM
TGI (HT29 colon): 13200 nM
GI50 (IGROV1 ovarian): 231 nM
TGI (IGROV1 ovarian): 1090 nM
GI50 (K-562 leukemia): 1850 nM
TGI (K-562 leukemia): 32400 nM
GI50 (KM12 colon): 3820 nM
TGI (KM12 colon): 15200 nM
GI50 (LOX IMVI melanoma): 792 nM
TGI (LOX IMVI melanoma): 2730 nM
GI50 (M14 melanoma): 1510 nM
TGI (M14 melanoma): 13800 nM
GI50 (MALME-3M melanoma): 271 nM
TGI (MALME-3M melanoma): 2130 nM
GI50 (MCF7 breast): 410 nM
TGI (MCF7 breast): 8330 nM
GI50 (MDA-MB-231 breast): 960 nM
TGI (MDA-MB-231 breast): 3050 nM
GI50 (MDA-MB-435): 1160 nM
TGI (MDA-MB-435): 9240 nM
GI50 (MDA-MB-468 breast): 208 nM
TGI (MDA-MB-468 breast): 962 nM
GI50 (MOLT-4 leukemia): 465 nM
TGI (MOLT-4 leukemia): 4910 nM
GI50 (NCI-H226 lung): 1430 nM
TGI (NCI-H226 lung): 10300 nM
GI50 (NCI-H23 lung): 1370 nM
TGI (NCI-H23 lung): 5330 nM
GI50 (NCI-H460 lung): 3580 nM
TGI (NCI-H460 lung): 21400 nM
GI50 (NCI-H522 lung): 641 nM
TGI (NCI-H522 lung): 4390 nM
GI50 (NCI/ADR-RES ovarian): 32700 nM
TGI (NCI/ADR-RES ovarian): > 100000 nM
GI50 (OVCAR-3 ovarian): 700 nM
TGI (OVCAR-3 ovarian): 3480 nM
GI50 (OVCAR-4 ovarian): 4910 nM
TGI (OVCAR-4 ovarian): 90400 nM
GI50 (OVCAR-5 ovarian): 2240 nM
TGI (OVCAR-5 ovarian): 18000 nM
GI50 (OVCAR-8 ovarian): 2560 nM
TGI (OVCAR-8 ovarian): 20500 nM
GI50 (PC-3 prostate): 1660 nM
TGI (PC-3 prostate): 14300 nM
GI50 (RPMI-8226 leukemia): 2050 nM
TGI (RPMI-8226 leukemia): 6800 nM
GI50 (RXF 393 renal): 367 nM
TGI (RXF 393 renal): 2440 nM
GI50 (SF-268 CNS): 835 nM
TGI (SF-268 CNS): 10400 nM
GI50 (SF-295 CNS): 2370 nM
TGI (SF-295 CNS): 12100 nM
GI50 (SF-539 CNS): 852 nM
TGI (SF-539 CNS): 3500 nM
GI50 (SK-MEL-2 melanoma): 901 nM
TGI (SK-MEL-2 melanoma): 2700 nM
GI50 (SK-MEL-28 melanoma): 652 nM
TGI (SK-MEL-28 melanoma): 8640 nM
GI50 (SK-MEL-5 melanoma): 617 nM
TGI (SK-MEL-5 melanoma): 1930 nM
GI50 (SK-OV-3 ovarian): 1490 nM
TGI (SK-OV-3 ovarian): 7140 nM
GI50 (SN12C renal): 904 nM
TGI (SN12C renal): 11300 nM
GI50 (SNB-19 CNS): 1150 nM
TGI (SNB-19 CNS): 9240 nM
GI50 (SNB-75 CNS): 139 nM
TGI (SNB-75 CNS): 4370 nM
GI50 (SR leukemia): 746 nM
TGI (SR leukemia): > 20600 nM
GI50 (SW-620 colon): 1900 nM
TGI (SW-620 colon): 10900 nM
GI50 (T-47D breast): 150 nM
TGI (T-47D breast): 1470 nM
GI50 (TK-10 renal): 714 nM
TGI (TK-10 renal): 5510 nM
GI50 (U251 CNS): 917 nM
TGI (U251 CNS): 4650 nM
GI50 (UACC-257 melanoma): 1620 nM
TGI (UACC-257 melanoma): 12600 nM
GI50 (UACC-62 melanoma): 419 nM
TGI (UACC-62 melanoma): 2320 nM
GI50 (UO-31 renal): 1680 nM
TGI (UO-31 renal): 20300 nM

CCNCCNc1cc(-c2ccc(Cl)cc2)c(C#N)c2nc3ccccc3n12
GI50 (MDA-MB-468 breast): 642 nM
TGI (MDA-MB-468 breast): 2090 nM

COc1ccc(C(=O)c2cc(OC)c(OC)c(OC)c2)cc1/C=C/C(=O)c1ccc(O)cc1
GI50 (MDA-MB-468 breast): 2070 nM
TGI (MDA-MB-468 breast): 8090 nM

Cc1ccc(C)c(-n2c(-c3ccc(Br)cc3)csc2=NC(=O)c2ccccc2F)c1
GI50 (MDA-MB-468 breast): > 100000 nM
TGI (MDA-MB-468 breast): > 100000 nM
